Results on 2 molecules are retold here after EP2138169B1, “Transdermal delivery system of hormones without penetration enhancers” (Bayer Intellectual Property GmbH, priority 2003, dated 2005).

One series in a line: clinical. Also on record: species or system women. The note with it: female, human, in vivo. The text has this: The effect on ovulation inhibition, serum drug concentrations and safety of a patch of the invention was investigated in a selected population of women. The study design was based on the requirements of the EMEA quideline for clinical studies with contraceptive steroids (Commitee for Proprietary Medicinal Products, CPMP/EWP 519/98).
Arcare MA-24A® is a polyisobutylene based adhesive from Adhesive Research.
The treatment phase includes a period of two menstrual cycles. The first treatment in the first cycle began one day after the volunteers started menstruating in this cycle by application of a patch. A total of three test patches were applied in intervals of 7 days between, such as application at days 1, 8 and 15 of the first cycle - each at different application sites- during each treatment cycle. Each patch was worn for 7 days, then replaced with a new patch to complete a total of 21 days of continuous use. This was followed by a 7-day treatment-free interval before the next treatment period started with a total of three patches applied, each applied with an interval of 7 days. If the patches were lost or became more than 40% detached, a new patch was applied.
The AUC was calculated according to the linear trapezoidal rule. […]
After incubation and centrifugation, the resultant precipitate was redissolved with NaOH. The assay has a lower limit of quantification of approx. 250 pg/ml.

For series [1] the following is noted: cited from earlier work.

By Cmax is commonly meant the maximum level reached in the sampled fluid or tissue. As a reminder, the Tmax is the time at which the peak concentration occurs.

The molecule `C#C[C@]1(O)CC[C@H]2[C@@H]3CCc4cc(O)ccc4[C@H]3CC[C@@]21C` [Ethinylestradiol] showed a Cmax in “clinical” (Cmax (mean) of ethinyl estradiol (EE)) of 0.0456 ng/mL. Further, the Tmax in “clinical” (Tmax (mean) of ethinyl estradiol (EE)) came to 48 h.
In the case of `C#C[C@]1(O)C=C[C@H]2[C@@H]3CCC4=CC(=O)CC[C@@H]4[C@H]3CC[C@@]21CC` [Gestodene, 13β-Ethyl-17α-ethynyl-17β-hydroxy-4,15-gonadien-3-one], the Maximal plasma levels result in series [1] (US 5,376,377, ethylene vinyl acrylate adhesive layer, Gestodene and ethinylestradiol) is listed as “about 0.8 ng/ml”. The “maximal plasma levels of Gestodene” value in series [1] (WO 92/07590, transdermal compositions with penetration enhancers, Gestodene and an estrogen) is reported as “about 0.9 ng/ml”.
